For 2 compounds, Km results are on record in article doi:10.1101/695973v1 (biorxiv, 2019).

For test [1], the system named is β-lactamase Mm3. The following applies: 20 mM sodium phosphate, 0.2 M NaCl, pH 7.4, 30°C; Hill equation, nH 2.36.
Test [2] has as its system β-lactamase Mm3. As to the kind of experiment: spectrophotometric hydrolysis at […] nm, initial rates, Michaelis-Menten fit. The following applies: 20 mM sodium phosphate, 0.2 M NaCl, pH 7.4, 30°C. It is filed as biochemical, uncultured bacterium.

Molecules are shown by their SMILES. Where two headings read alike, the source gives them in different places.

A word on the Km: it is the substrate concentration at which the rate is half of its maximum. In the case of `CC1(C)S[C@@H]2[C@H](NC(=O)[C@H](N)c3ccccc3)C(=O)N2[C@H]1C(=O)O` [ampicillin], in the test on β-lactamase Mm3 [1], the Km was 271 ± 16.4 µM.
Turning to `CC1(C)S[C@@H]2[C@H](NC(=O)C(C(=O)O)c3ccccc3)C(=O)N2[C@H]1C(=O)O` (some centres unmarked) [carbenicillin], in the test with β-lactamase Mm3 [2], the Km was 400 ± 42.7 µM.
